Source: PubChem BioAssay AID1259407 (Chemical Carcinogenesis Research Information System (CCRIS), 2018)
The source made the active and inactive calls. No rule for the calls is given here.

Tested on: CCRIS mutagenicity, Ames/micronucleus/aberration tests
Assay: CCRIS mutagenicity studies
[1] = Test System: AMES SALMONELLA TYPHIMURIUM, Strain/Indicator: TA98, Metabolic Activation: HAMSTER, LIVER, S-9, AROCLOR 1254, Method: STANDARD PLATE
[2] = Test System: AMES SALMONELLA TYPHIMURIUM, Strain/Indicator: TA98, Metabolic Activation: NONE, Method: STANDARD PLATE
[3] = Test System: AMES SALMONELLA TYPHIMURIUM, Strain/Indicator: TA98, Metabolic Activation: RAT, LIVER, S-9, AROCLOR 1254, Method: STANDARD PLATE
[4] = Test System: AMES SALMONELLA TYPHIMURIUM, Strain/Indicator: TA100, Metabolic Activation: HAMSTER, LIVER, S-9, AROCLOR 1254, Method: STANDARD PLATE
[5] = Test System: AMES SALMONELLA TYPHIMURIUM, Strain/Indicator: TA100, Metabolic Activation: NONE, Method: STANDARD PLATE
[6] = Test System: AMES SALMONELLA TYPHIMURIUM, Strain/Indicator: TA100, Metabolic Activation: RAT, LIVER, S-9, AROCLOR 1254, Method: STANDARD PLATE
[7] = Test System: AMES SALMONELLA TYPHIMURIUM, Strain/Indicator: TA1535, Metabolic Activation: HAMSTER, LIVER, S-9, AROCLOR 1254, Method: STANDARD PLATE
[8] = Test System: AMES SALMONELLA TYPHIMURIUM, Strain/Indicator: TA1535, Metabolic Activation: NONE, Method: STANDARD PLATE
[9] = Test System: AMES SALMONELLA TYPHIMURIUM, Strain/Indicator: TA1535, Metabolic Activation: RAT, LIVER, S-9, AROCLOR 1254, Method: STANDARD PLATE
[10] = Test System: AMES SALMONELLA TYPHIMURIUM, Strain/Indicator: TA1537, Metabolic Activation: HAMSTER, LIVER, S-9, AROCLOR 1254, Method: STANDARD PLATE
[11] = Test System: AMES SALMONELLA TYPHIMURIUM, Strain/Indicator: TA1537, Metabolic Activation: NONE, Method: STANDARD PLATE
[12] = Test System: AMES SALMONELLA TYPHIMURIUM, Strain/Indicator: TA1537, Metabolic Activation: RAT, LIVER, S-9, AROCLOR 1254, Method: STANDARD PLATE
[13] = Test System: AMES SALMONELLA TYPHIMURIUM, Strain/Indicator: TA1538, Metabolic Activation: HAMSTER, LIVER, S-9, AROCLOR 1254, Method: STANDARD PLATE
[14] = Test System: AMES SALMONELLA TYPHIMURIUM, Strain/Indicator: TA1538, Metabolic Activation: NONE, Method: STANDARD PLATE
[15] = Test System: AMES SALMONELLA TYPHIMURIUM, Strain/Indicator: TA1538, Metabolic Activation: RAT, LIVER, S-9, AROCLOR 1254, Method: STANDARD PLATE
[16] = Test System: MOUSE LYMPHOMA, Strain/Indicator: L5178Y (TK+/TK-), Metabolic Activation: NONE, Method: SUSPENSION/PLATE
[17] = Test System: MOUSE LYMPHOMA, Strain/Indicator: L5178Y (TK+/TK-), Metabolic Activation: RAT, LIVER, S-9, AROCLOR 1254, Method: SUSPENSION/PLATE

SMILES	mutagenic call [1]	mutagenic call [2]	mutagenic call [3]	mutagenic call [4]	mutagenic call [5]	mutagenic call [6]	mutagenic call [7]	mutagenic call [8]	mutagenic call [9]	mutagenic call [10]	mutagenic call [11]	mutagenic call [12]	mutagenic call [13]	mutagenic call [14]	mutagenic call [15]	mutagenic call [16]	mutagenic call [17]	further results
CCCCC/C=C/C=C/C=O	inactive; negative	inactive; negative	inactive; negative	inactive; negative	inactive; negative	inactive; negative	inactive; negative	inactive; negative	inactive; negative	inactive; negative	inactive; negative	inactive; negative	inactive; negative	inactive; negative	inactive; negative	inactive; negative. reevaluation of results: negative	inactive; negative. reevaluation of results: negative	–
FC(F)(F)c1ccc(Cl)cc1	inactive; negative	inactive; negative	inactive; negative	inactive; negative	inactive; negative	inactive; negative	inactive; negative	inactive; negative	inactive; negative	inactive; negative	inactive; negative	inactive; negative	inactive; negative	inactive; negative	inactive; negative	inactive; negative. reevaluation of results: negative	inactive; negative. reevaluation of results: equivocal	–
NC(=O)C1(N2CCCCC2)CCN(CCCC(=O)c2ccc(F)cc2)CC1	–	–	–	–	–	–	–	–	–	–	–	–	–	–	–	–	–	mutagenic call (End Point: IN VITRO CHROMOSOMAL ABERRATIONS, Test System: HUMAN LYMPHOCYTES, Metabolic Activation: NONE): inactive; negative
Cc1ccc(S(=O)(=O)NN)cc1	inactive; negative	inactive; negative	inactive; negative	active; positive	active; positive	active; positive	–	–	–	–	–	–	–	–	–	active; positive. reevaluation of results: positive	active; positive. reevaluation of results: equivocal	mutagenic call (End Point: IN VITRO CHROMOSOMAL ABERRATIONS, Test System: CHL CELLS, Metabolic Activation: RAT, LIVER, S-9, SODIUM PHENOBARBITAL AND 5,6-BENZOFLAVONE): active; positive (structural changes); mutagenic call (Test System: AMES SALMONELLA TYPHIMURIUM, Strain/Indicator: TA97, Metabolic Activation: NONE, Method: STANDARD PLATE): inactive; negative; mutagenic call (Test System: AMES SALMONELLA TYPHIMURIUM, Strain/Indicator: TA97, Metabolic Activation: RAT, LIVER, S-9, AROCLOR 1254, Method: STANDARD PLATE): inactive; negative; mutagenic call (Test System: AMES SALMONELLA TYPHIMURIUM, Strain/Indicator: TA98, Metabolic Activation: NONE, Method: PREINCUBATION): inactive; negative; mutagenic call (Test System: AMES SALMONELLA TYPHIMURIUM, Strain/Indicator: TA98, Metabolic Activation: RAT LIVER S-9, PHENOBARBITAL AND BETA-NAPHTHOFLAVONE, Method: PREINCUBATION): inactive; negative; mutagenic call (Test System: AMES SALMONELLA TYPHIMURIUM, Strain/Indicator: TA100, Metabolic Activation: NONE, Method: PREINCUBATION): active; positive; mutagenic call (Test System: AMES SALMONELLA TYPHIMURIUM, Strain/Indicator: TA100, Metabolic Activation: RAT LIVER S-9, PHENOBARBITAL AND BETA-NAPHTHOFLAVONE, Method: PREINCUBATION): active; positive; mutagenic call (Test System: AMES SALMONELLA TYPHIMURIUM, Strain/Indicator: TA102, Metabolic Activation: NONE, Method: STANDARD PLATE): inactive; negative; mutagenic call (Test System: AMES SALMONELLA TYPHIMURIUM, Strain/Indicator: TA102, Metabolic Activation: RAT, LIVER, S-9, AROCLOR 1254, Method: STANDARD PLATE): inactive; negative; mutagenic call (Test System: AMES SALMONELLA TYPHIMURIUM, Strain/Indicator: TA1535, Metabolic Activation: NONE, Method: PREINCUBATION): active; positive; mutagenic call (Test System: AMES SALMONELLA TYPHIMURIUM, Strain/Indicator: TA1535, Metabolic Activation: RAT LIVER S-9, PHENOBARBITAL AND BETA-NAPHTHOFLAVONE, Method: PREINCUBATION): active; positive; mutagenic call (Test System: AMES SALMONELLA TYPHIMURIUM, Strain/Indicator: TA1537, Metabolic Activation: NONE, Method: PREINCUBATION): inactive; negative; mutagenic call (Test System: AMES SALMONELLA TYPHIMURIUM, Strain/Indicator: TA1537, Metabolic Activation: RAT LIVER S-9, PHENOBARBITAL AND BETA-NAPHTHOFLAVONE, Method: PREINCUBATION): inactive; negative; mutagenic call (Test System: AMES SALMONELLA TYPHIMURIUM, Strain/Indicator: TA1538, Metabolic Activation: NONE, Method: PREINCUBATION): inactive; negative; mutagenic call (Test System: AMES SALMONELLA TYPHIMURIUM, Strain/Indicator: TA1538, Metabolic Activation: RAT LIVER S-9, PHENOBARBITAL AND BETA-NAPHTHOFLAVONE, Method: PREINCUBATION): inactive; negative; mutagenic call (Test System: E.COLI, Strain/Indicator: WP2UVRA, Metabolic Activation: NONE, Method: PREINCUBATION): active; positive; mutagenic call (Test System: E.COLI, Strain/Indicator: WP2UVRA, Metabolic Activation: RAT LIVER S-9, PHENOBARBITAL AND BETA-NAPHTHOFLAVONE, Method: PREINCUBATION): active; positive
